Reference: the supplement of paper PMC10307832

What was measured:
Test in all cases: relative viability (nuclei count vs DMSO), 5 days (fraction); higher = more cells survive
[1] = compound: CC1=CC(=NN1)NC2=CC(=NC(=N2)/C=C/C3=CC=CC=C3)N4CCN(CC4)C + C[C@@H](Oc1cc(-c2cnn(C3CCNCC3)c2)cnc1N)c1c(Cl)ccc(F)c1Cl [Crizotinib] (partner 1 µM)
How it was run: (§1)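 Relative viability is defined as nuclei in treated wells over nuclei in vehicle wells. Duplicate plates were run and medians reported. Lung cancer cell lines in 1536-well plates were dosed by pin tool one day after seeding, with one drug or with a fixed anchor-drug dose plus five library-drug doses (not always all listed) in √10 steps, and nuclei were counted after 5 days.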

[2] = compound: CC1=CC(=NN1)NC2=CC(=NC(=N2)/C=C/C3=CC=CC=C3)N4CCN(CC4)C + CCNC(=O)c1noc(-c2cc(C(C)C)c(O)cc2O)c1-c1ccc(CN2CCOCC2)cc1 [Luminespib] (partner 0.01 µM)
How it was run: as §1

[3] = compound: CC1=CC(=NN1)NC2=CC(=NC(=N2)/C=C/C3=CC=CC=C3)N4CCN(CC4)C + CS(=O)(=O)CCNCc1ccc(-c2ccc3ncnc(Nc4ccc(OCc5cccc(F)c5)c(Cl)c4)c3c2)o1 [Lapatinib] (partner 2 µM)
How it was run: as §1

Cell Line | relative viability ([1]; first compound 0.08 µM) | relative viability ([1]; first compound 0.253 µM) | relative viability ([1]; first compound 0.8 µM) | relative viability ([1]; first compound 2.53 µM) | relative viability ([1]; first compound 8 µM) | relative viability ([2]; first compound 0.08 µM) | relative viability ([2]; first compound 0.253 µM) | relative viability ([2]; first compound 0.8 µM) | relative viability ([2]; first compound 2.53 µM) | relative viability ([2]; first compound 8 µM) | relative viability ([3]; first compound 0.08 µM) | relative viability ([3]; first compound 0.253 µM) | relative viability ([3]; first compound 0.8 µM) | relative viability ([3]; first compound 2.53 µM) | relative viability ([3]; first compound 8 µM)
201T | 1.01 | 1.07 | 0.965 | 0.982 | 0.786 | 1.01 | 1.04 | 1.01 | 0.947 | 0.266 | 1.02 | 1.07 | 1.04 | 0.946 | 0.915
A549 | 0.873 | 0.537 | 0.257 | 0.112 | 0.0338 | – | – | – | – | – | 0.924 | 0.954 | 0.772 | 0.102 | 0.0367
A-427 | 0.878 | 0.878 | 0.937 | 0.399 | 0.0861 | 0.775 | 0.984 | 0.873 | 0.361 | 0.105 | 1.22 | 1.05 | 0.957 | 0.542 | 0.513
ABC-1 | 0.866 | 1.25 | 0.562 | 0.182 | 0.169 | 0.497 | 0.51 | 0.961 | 0.701 | 0.19 | 0.957 | 1.15 | 1.23 | 1.13 | 0.453
BEN | 0.881 | 1.09 | 0.804 | 0.675 | 0.167 | 0.634 | 0.207 | 0.22 | 0.217 | 0.137 | 0.75 | 0.668 | 0.742 | 0.326 | 0.229
CAL-12T | 0.825 | 0.54 | 0.291 | 0.11 | 0.0934 | 0.429 | 0.512 | 0.356 | 0.123 | 0.074 | 0.654 | 0.778 | 0.663 | 0.324 | 0.141
COR-L23 | 0.696 | 0.676 | 0.41 | 0.159 | 0.0747 | 0.723 | 0.813 | 0.593 | 0.398 | 0.0972 | 0.98 | 1.51 | 1.1 | 0.22 | 0.0755
COR-L 105 | 0.897 | 0.731 | 0.445 | 0.222 | 0.191 | 0.553 | 0.784 | 0.736 | 0.654 | 0.197 | 0.335 | 0.341 | 0.338 | 0.23 | 0.223
Calu-6 | 0.735 | 0.622 | 0.345 | 0.197 | 0.101 | – | – | – | – | – | 0.93 | 0.966 | 0.793 | 0.195 | 0.137
ChaGo-K-1 | 1.1 | 1.07 | 1.13 | 0.484 | 0.267 | 0.644 | 0.613 | 0.629 | 0.384 | 0.159 | – | – | – | – | –
EBC-1 | 0.188 | 0.185 | 0.213 | 0.137 | 0.108 | – | – | – | – | – | 0.214 | 0.223 | 0.254 | 0.209 | 0.153
EKVX | 0.991 | 1.12 | 0.978 | 0.552 | 0.147 | 0.852 | 0.981 | 0.984 | 0.758 | 0.261 | 0.191 | 0.216 | 0.226 | 0.136 | 0.0912
